Data from patent US20260209220A1, “SUBSTITUTED TETRAHYDROPYRROLO-PYRIDINONE COMPOUNDS AND THEIR USE IN TREATING MEDICAL CONDITIONS” (Karuna Therapeutics, Inc., priority 2022, published 2026).

Assays:
rM4 receptors = biological target: T1, rM4 receptors (Rattus norvegicus, UniProt P08485); experiment: Rat M4 PAM PERK assay (CHO cells, TR-FRET, with EC20 acetylcholine); assay type: cell-based
T1 construct: expressed in transfected cells; host or cells: CHO cells
T1 sequence (P08485 1-478): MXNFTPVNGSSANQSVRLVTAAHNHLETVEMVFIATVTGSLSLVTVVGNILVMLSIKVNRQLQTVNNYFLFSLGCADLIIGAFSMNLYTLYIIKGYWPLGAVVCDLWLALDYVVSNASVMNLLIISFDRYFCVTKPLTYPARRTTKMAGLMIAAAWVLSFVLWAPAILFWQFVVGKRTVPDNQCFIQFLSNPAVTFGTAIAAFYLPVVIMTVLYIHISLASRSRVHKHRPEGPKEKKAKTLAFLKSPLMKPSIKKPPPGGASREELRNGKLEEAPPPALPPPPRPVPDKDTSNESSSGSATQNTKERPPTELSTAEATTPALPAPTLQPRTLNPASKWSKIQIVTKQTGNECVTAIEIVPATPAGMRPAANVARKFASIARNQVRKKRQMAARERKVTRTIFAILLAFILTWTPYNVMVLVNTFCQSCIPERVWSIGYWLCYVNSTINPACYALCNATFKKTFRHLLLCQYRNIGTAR
Procedure, shortened: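 CHO cells expressing human or rat M4, serum-starved 4 h, then given compound (10-point, 10 μM top, ½-log) with EC20 acetylcholine (10 nM final) for 5 min at 37 °C. Lysates assayed for phospho-ERK by TR-FRET after 2 h detection at RT.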

human M4 receptor = biological target: T2, human M4 receptor (Homo sapiens, UniProt P08173); experiment: M4 GTPγS PAM assay (CHO-K1 membranes, 35S-GTP binding, with EC20 acetylcholine); assay type: biochemical; conditions: with EC20 acetylcholine (40 nM)
T2 construct: expressed in transfected cells; host or cells: CHO-K1 cells (membranes)
T2 sequence (P08173 1-479): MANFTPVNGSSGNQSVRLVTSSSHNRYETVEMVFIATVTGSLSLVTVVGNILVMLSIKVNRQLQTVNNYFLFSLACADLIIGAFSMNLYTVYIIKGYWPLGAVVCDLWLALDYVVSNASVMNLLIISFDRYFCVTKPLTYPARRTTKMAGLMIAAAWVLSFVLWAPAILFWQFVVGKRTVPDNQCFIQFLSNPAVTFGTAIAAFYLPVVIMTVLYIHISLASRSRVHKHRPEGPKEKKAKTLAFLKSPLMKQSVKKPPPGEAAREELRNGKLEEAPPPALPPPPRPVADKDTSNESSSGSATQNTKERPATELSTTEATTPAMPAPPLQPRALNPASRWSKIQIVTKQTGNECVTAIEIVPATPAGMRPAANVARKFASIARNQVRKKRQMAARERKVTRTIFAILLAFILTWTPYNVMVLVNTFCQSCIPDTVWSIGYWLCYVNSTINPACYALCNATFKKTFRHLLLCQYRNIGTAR
Procedure, shortened: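 Membranes from CHO-K1 cells stably expressing human M4 ([…]) in 20 mM HEPES, 10 mM MgCl2, 100 mM NaCl, with 0.1 μM GDP final, were preincubated with compound 10-15 min at RT. Acetylcholine at EC20 (40 nM final) was added for 10-15 min, then 0.4 nM 35S-GTP solution for 1 h at RT. Filter-bound radioactivity was counted.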

EC50 (rM4 receptors) [nM]	EC50 (human M4 receptor) [nM]	Compound
< 50	< 50	Cc1c2c(n(C)c(=O)c1F)CN(C(=O)CC1CN(c3ccc(C4CC4)c(F)c3)C1)C2 [Compound I-88]
50 to 200	< 50	Cc1c2c(n(C)c(=O)c1C)CN(C(=O)CC1CN(c3ccnc(C(F)(F)F)c3)C1)C2 [Compound I-42, 1,3,4-Trimethyl-6-(2-(1-(2-(trifluoromethyl)pyridin-4-yl)azetidin-3-yl)acetyl)-1,5,6,7-tetrahydro-2H-pyrrolo[3,4-b]pyridin-2-one]
200 to 1000	50 to 200	Cc1cc(=O)n(C)c2c1CN(C(=O)CC1CN(c3cccc(F)c3F)C1)C2 [Compound I-14]
50 to 200	< 50	Cc1cc(=O)n(C)c2c1CN(C(=O)CC1CN(c3cc(F)cc(C4CC4)c3)C1)C2 [Compound I-4]
